Assay: Activities and properties of the compounds (Table III codes listed as Specific Properties in Table IV)
Conditions: not given
From the text: Certain of the compounds produce a profound hypothermia, but without anesthetizing. […] Table III, following, sets forth a list of the other properties of these guanidino compounds, which arise from their alpha-adrenergic agonist activity, combined with any inherent activity of the reactants chosen to achieve the final compound.
Except for items numbered 22 and 24–28 in Table III, substantially all of the guanidino compounds of this invention, as a result of their structure-activity relationship, are potent with respect to all of the above activities. However, as would be expected, various compounds have different, higher levels of, activities and properties which are listed as “Specific Properties”, with the Compounds numbered, in Table IV, below, according to the numbers in Tables I and II.

Row | Molecule | Specific Properties
1 | 1,2-Bis(theophylline-7-acetamido)-ethane [Compound 164] | 3, 15, anesthesia antagonist
2 | 3-(Guanidinoacetoxy)-estrone [Compound 148] | 27
3 | 3-(PGE2carbonyl)-3-estrone ester [Compound 156] | 27 (some agonist activity)

Same assay, conditions: codes of Table III; […]

Row | Molecule | Specific Properties
4 | 2-(2,6-Diisopropylanilino)-2-methyleneimidazole [Compound 101] | adrenergic antagonist
5 | 4-4′-(1,2-Diethyl-1,2-ethenediyl)-4-guanidinoacetoxyphenyl-4′-(6-hydroxy-2,5,7,8-tetramethylchroman-2-carbonyl)-phenol ester [Compound 143] | 27 (Estrogenic antagonist (breast cancer treatment))
6 | 4-(PGE2carbonylphenyl)-4-4′(1,2-diethyl-1,2-ethenediyl)-4-phenol [Compound 157] | 27 (some agonist activity)
7 | 5-Methoxy-2-methyl-3-indoleacetamidoguanidine [Compound 103] | 5
8 | 7-(3,5-Dichorophenylhydrazido)-7-acetyltheophylline [Compound 102] | 3, 14, 16, 17 antagonist
9 | 17-(PGE1carbonyl)-17-cyproterone ester [Compound 154] | 26 (Androgenic antagonist)
10 | C[N+](C)(C)CCOC(=O)CNC(=N)N [Compound 32] | 1, 15, cholinergic
11 | COc1cc(CC(=O)Oc2ccc3[nH]cc(CCN)c3c2)cc(OC)c1OC [Compound 74, 5-(3,4,5-Trimethoxyphenylacetoxy)-tryptamine] | 5
12 | CC(=O)[C@@]1(OC(=O)CNC(=N)N)CCC2C3C=C(Cl)C4=CC(=O)C5C[C@@H]5C4(C)C3CCC21C (stereo partly drawn) [Compound 129, 6-Chloro-1,2,Dihydro-17-guanidinoacetoxy-3′H-cyclopropa[1,2]pregna-1,4,6-triene-3,20-dione] | 26 (Androgenic antagonist)

Same assay, conditions: codes of Table III; higher levels of activity

Row | Molecule | Specific Properties
13 | 2-(3,4,5-Trimethoxybenzylidineamino)-2-methylbenzimidazole [Compound 100] | adrenergic antagonist
14 | 17-[2-6-(N-1-Aminophthalazino-1-amidopropionyl)-2,5,7,8-tetramethylchroman-2-carbonyl]-17-cyproterone ester [Compound 140] | 26 (ESP Topical to treat male pattern
15 | Cl.Cn1c(=O)c2c(ncn2CC(=O)Nc2nc(N)nc(NC(=O)C[N+](C)(C)C)n2)n(C)c1=O [Compound 31, 2-(Amino)-4-(1-carboxamido-N,N,N-trimethylmethaniminium)-6-(theophylline-7-acetamido)-1,3,5-s-triazine] | 2, 3, 15, cholinergic
16 | N=C(N)NNC(=O)Cc1c[nH]c2ccc(O)cc12 [Compound 38, 5-Hydroxyindole-3-acetamidoguanidine] | 5
17 | COc1cc(N=Cc2ncc[nH]2)cc(OC)c1OC [Compound 98] | adrenergic antagonist
18 | N=C(N)c1ccc(C(=O)NC(=O)Cc2c(Cl)cccc2Cl)cc1 [Compound 99, 4-(Amidino)-N-(2,6-dichlorophenylacetyl)-benzamide] | adrenergic antagonist
19 | COc1cc(CNC(=O)CNC(=N)N)ccc1O [Compound 104, N-(4-Hydroxy-3-methoxybenzyl)-guanidinoacetamide] | 2 (Antispasticity and muscle relaxant)
20 | CC/C(=C(/CC)c1ccc(OC(=O)CNC(=N)N)cc1)c1ccc(OC(=O)CNC(=N)N)cc1 [Compound 127, 4,4′-(1,2-Diethyl-1,2-ethenediyl)bis-phenoldiguanidinoacetate ester] | 27 (Estrogenic antagonist (breast cancer treatment))
21 | CC/C(=C(/CC)c1ccc(OC(=O)C2(C)CCc3c(C)c(OC(=O)CNC(=N)N)c(C)c(C)c3O2)cc1)c1ccc(O)cc1 (stereo not drawn) [Compound 128, 2-[4,4′-(1,2-Diethyl-1,2-ethenediyl)phenol]-6-(guanidinoacetoxy)-2,5,7,8-tetramethylchroman-2-carbonyl-2-phenol ester] | 27 (Estrogenic antagonist (breast cancer treatment))
22 | Cc1c(C)c2c(c(C)c1O)CCC(C)(C(=O)Nc1ccc(C(=O)NNC(=N)N)cc1)O2 (stereo not drawn) [Compound 135, 4-N-(G-Hydroxy-2,5,7,8-tetramethylchroman-2-carboxamido)-4-benzamidoguanidine] | 9–15
23 | CC1(N=Cc2c(Cl)cccc2Cl)N=c2ccccc2=N1 [Compound 162, 2-(2,6-Dichlorobenzylideneamino)-2-methyl-benzimidazole] | 14, 17 adrenergic antagonist, 22, 23
24 | CC(C)c1cccc(C(C)C)c1C=NCC(=N)N [Compound 163, 2,6-Diisopropylbenzylideneaminomethylamidine] | 14, 17, adrenergic antagonist, 22, 23
25 | CCCCCC(O)/C=C/C1C(O)CC(=O)[C@@H]1CCCCCCCC(=O)OCC(O)COC(=O)CCCCCCC[C@H]1C(=O)CC(O)C1/C=C/C(O)CCCCC (stereo partly drawn) [Compound 170, 1,3-Di-PGE1-2-propanol-ester] | 8, 9, 12, Vasodilator
26 | CC(=O)[C@@]1(OC(=O)CNC(=N)N)CCC2C3C=C(C)C4=CC(=O)CCC4(C)C3CCC21C (stereo partly drawn) [Compound 184, 17-(Guanidinoacetoxy)-megostrol] | 27, Progestin, androgenic
27 | CC(=O)[C@@]1(OC(=O)CNC(=N)N)CCC2C3CC(C)C4=CC(=O)CCC4(C)C3CCC21C (stereo partly drawn) [Compound 185, 17-(Guanidinoacetoxy)-medroxyprogesterone] | 27, Progestin, androgenic
28 | CC(=O)[C@@]1(OC(=O)CNC(=N)N)CCC2C3CCC4=CC(=O)CCC4(C)C3CCC21C (stereo partly drawn) [Compound 186, 17-(Guanidinoacetoxy)-progesterone] | 1927, Progestin, androgenic
29 | CC/C(=C(\c1ccccc1)c1ccc(OC(=O)CNC(=N)N)cc1)c1ccccc1 [Compound 187, [Z]-2-[4-(1,2-Diphenyl-1-butenyl)-phenoxy]-guanidineacetate ester] | 27, Progestin
30 | N=C(N)c1ccc(OCCCCCOc2ccc(C(=N)N)cc2)cc1 [Compound 192, 4,4′-[Pentanediylbis(oxy)]bis-benzenecarboximidamide, reference compound] | 1, 2, 8–10, 15, 29 Adrenergic antagonist
31 | [H]/N=C(\N/C(=N/[H])Nc1ccc(Cl)cc1)NC(C)C [Compound 217, reference compound] | 1, 4, 6–9, 16, 17, 19 antimalarial
32 | N=C(N)c1ccc(C(=O)NC(c2ccccc2)c2ccccc2)cc1 [Compound 223, N-(Diphenylmethyl)-4-(amidino)-Benzamide] | 1, 2, 4, 6, 9, 10, 14, 15, 17, 23, 29 Adrenergic
33 | N=C(N)c1ccc(C(=O)NC(=O)CCCCC2SCC3NC(=O)NC32)cc1 (stereo not drawn) [Compound 233, N-(Hexahydro-2-oxo-1H-thieno[3,4-d]-imidazole-4-pentanoyl)-4-amidinobenzamide] | 1, 2, 4, 6, 9, 10, 14, 15, 17, 23, 29 Antialopecia,
34 | Bis(3,17-PGE2carbonyl)-estradiole ester [Compound 158] | 27 (Estrogenic antagonist (breast cancer treatment))
35 | Bis(3,17-guanidinoacetoxy)estradiaole [Compound 147] | 27 (Estrogenic antagonist (breast cancer treatment))
36 | Guanidinamidocarbonyl-1-cholinepentanoic acid ester [Compound 167] | Adrenergic, cholinergic, 22, 23

— patent publication US7109329B2, “Neurologically active compounds and compounds with multiple activities” (priority 1988, dated 2006)
